SMILES | melting point [°C]
COCOc1ccc(C=C2CCCC(=Cc3ccc(OCOC)c(OC)c3)C2=O)cc1OC | 73 to 75
O=C(Oc1cccc2ccccc12)n1c2c(c(=O)n(C3CCCCO3)c1=O)CCC2 (stereo unspecified) | 160
CCC(C(O)c1ccc(Cl)cc1)n1ncn(-c2ccc(N3CCN(C(=O)c4ccccn4)CC3)nc2)c1=O (stereo unspecified) | 210
CNC(=C[N+](=O)[O-])NCCCCCCCCCCCCN | 123 to 125
CCCc1c(OCC2(Sc3ccc(C(=O)CCC(=O)O)cc3)CCCCC2O)ccc(C(C)=O)c1O (stereo unspecified) | 65 to 67
BrCc1cc(CBr)cc(CBr)c1 | 95.5 to 97.5
NC(=O)C1CCN(c2ncncc2Cl)CC1 | 201 to 202
NC(=O)c1nc(-c2cccc(O)c2)nc2c1[nH]c(=O)n2-c1cccc2[nH]ccc12 | > 260
CC(=O)OCc1ncc2n1-c1ccc(Cl)cc1C(c1ccccc1F)=NC2 | 151 to 152
C1=C2NCCCN2Cc2ccccc2C1c1ccccc1 (stereo unspecified) | 227 to 228
CC(C)(C)N1C(=O)C2Cc3[nH]cnc3CN2C1=O (stereo unspecified) | 156 to 158
O=C(Oc1ccccc1)N1CCC2(CC1)SC(c1ccccc1)c1ccc(F)cc12 (stereo unspecified) | 156 to 158
Cc1c(NC(=O)c2ccc(OC[C@@H]3CCCO3)cc2)ccc2cc(CNC3CCC3)cnc12 | 142 to 144
C[Si](C)(C)c1ccc(-c2ccc(Br)cc2F)c(F)c1F | 78
Nc1cc(I)c(I)cc1[N+](=O)[O-] | 196 to 197
CCOC(=O)c1oc2ccc([N+](=O)[O-])cc2c1OC(C)C | 122
CC(C)Oc1ccc(-c2nn(Cc3oc4cccc(F)c4c(=O)c3-c3cccc(F)c3)c3ncnc(N)c23)cc1F | 156 to 159
O=C1CCC(c2ccc(NC(=O)C3(Cl)CC3)cc2)=NN1 | 231 to 232
Cc1ccc(S(=O)(=O)NC(=O)C2C(=O)CC3(CCCCC3)CC2=O)cc1 | 150 to 152
COC(=O)C(CCSC)NCC(=O)Nc1cccc2c1C(=O)c1c(NC(=O)CNC(CCSC)C(=O)OC)cccc1C2=O (stereo unspecified) | 126 to 127

SMILES | melting point [°C]
O=C(NCCCCOc1ccc(-n2ccnc2)cc1)c1cccc2ccccc12 | 157 to 159
Cc1cccc2nc(C(C)Nc3ncnc4c3ncn4COCC[Si](C)(C)C)n(-c3cccc(C(N)=O)c3)c(=O)c12 (stereo unspecified) | 195 to 197
CS(=O)(=O)c1ccc(-c2oc(C(=O)O)cc(=O)c2Oc2ccc(F)cc2F)cc1 | 245
O=C(C=Cc1c(Cl)cccc1Cl)N1CCc2c([nH]c3ccccc23)C1c1ccc2c(c1)OCO2 (stereo unspecified) | 118 to 120
CCc1[nH]n(-c2c(Cl)cc(Cl)cc2Cl)c2nc(Cc3cccc(OC)c3)nc(=O)c1-2 | 235 to 238
O=C1CC(C(F)(F)F)CC(=O)O1 | 88 to 91
C#CCOc1cc([N+](=O)[O-])c(F)cc1Cl | 88 to 89
Cc1cccnc1-n1c(=S)nc2c(C)cccn2c1=S | 131 to 132
FC1=COC(COCc2ccccc2)C(COCc2ccccc2)O1 (stereo unspecified) | 61.5 to 63
COC(=O)C1(CCCCCCCCCCCCC2(C(=O)NS(C)(=O)=O)CC2)CC1 | 53.5 to 54.5
C=C(C)COc1ccc(C(=O)C=Cc2ccc(F)cc2)c2oc3ccccc3c(=O)c12 | 135 to 137
CC(=O)OC[C@@H]1O[C@H](n2c(NC(C)C)nc3c(Cl)cccc32)[C@@H](OC(C)=O)[C@H]1OC(C)=O | 225 to 227
Cc1ccc(-c2c3c(cc4ccc(O)cc24)-c2ccc(O)cc2CO3)cc1F | 238 to 240
Brc1ccn2nc(N3CCOCC3)nc2c1 | 178 to 179
O=C(C1CCN(c2ccncc2)CC1)N1CCN(Cc2ccc(Br)cc2)CC1 | 148 to 149
Cn1cc(C(=O)NCc2ccc(Cl)cc2)c(=O)c2cc(CN3CCOCC3)cc(C#CCn3cnc(Cl)c3Cl)c21 | 178 to 181
NC(=S)NCc1cccs1 | 99 to 101
O=C1CCC(c2ccc(O)cc2)=NN1 | 157 to 159
COc1cc(C)c2c(=O)c3c(C)c(Cl)ccc3oc2c1OC | 101
Cc1ccc2c(c1)CC1(CCC(=O)CC1)C2 | 68 to 70

SMILES | melting point [°C]
N#Cc1ccc(O[C@@H]2c3cccnc3C[C@H]2N2CCC[C@@H](N)C2)c(Cl)c1 | 172
O=C(NNc1ccc(C=CC(c2cc(Cl)c(Cl)c(Cl)c2)C(F)(F)F)cc1)C1CC1 (stereo unspecified) | 138 to 140
CCOC(=O)c1c(O)c2cccnc2n(Cc2ccc(Cl)cc2)c1=O | 142 to 144
O=C(O)c1cc(C(F)(F)F)cc(F)c1F | 94 to 96
O=c1c2cnc(N3CCCCC3)nc2sn1CCc1ccccn1 | 109 to 110
CC(=O)OC1CCC2C3CCC4=CC(=O)C(I)C(C)C4(C)C3CCC12C (stereo unspecified) | 102
CC1(C(=O)NN)C(=O)Nc2cc3[nH]c(-c4ccncc4)nc3cc21 (stereo unspecified) | > 300
CCOc1cc(OCC(=O)OCc2ccccc2)cc2c1C(=O)N(COC(=O)c1c(Cl)cccc1Cl)S2(=O)=O | 157 to 158
Cc1cc(C2=NN(c3nncs3)C(C)Cc3cc4c(cc32)OCO4)ccc1[N+](=O)[O-] (stereo unspecified) | 182 to 189
O=Cc1ccc(Sc2nc3cc(F)c(F)cc3[nH]2)o1 | 133
CCCCCCCCCCCCCCCCCCNC(=O)c1ccc(OC(C)=O)cc1 | 106
CC[C@H]1C(=O)N([Si](C)(C)C(C)(C)C)[C@H]1C(=O)C=[N+]=[N-] | 88 to 89
COc1ccc(C=C2N=C(c3ccc([N+](=O)[O-])cc3)OC2=O)cc1OC | 265 to 267
CNC(=O)Nc1ccc(Oc2ccc3sncc3c2)cc1 | 178
Cc1ccc(-c2c(NS(=O)(=O)c3ccc(C(C)(C)C)cc3)nc(NCCOC3CCCCO3)nc2OCCOc2ncc(Br)cn2)cc1 (stereo unspecified) | 65 to 69
O=c1[nH]nc(Cl)cc1Nc1ccncn1 | > 300
C(=NNc1nc(OCCc2ccccn2)nc(N2CCOCC2)n1)c1c[nH]c2ccccc12 | 158 to 161
CC(=O)c1cccc(C=CC(=O)N2CCc3c([nH]c4ccccc34)C2c2ccc3c(c2)OCO3)c1 (stereo unspecified) | 191
COc1ccccc1Sc1ccc2c(c1)CC[C@H]1NC(=O)CC[C@]21C | 176 to 179

The remaining lines, values ahead:

melting point [°C] | SMILES
130 to 133 | CC(Cc1c[nH]c2ccccc12)(NC(=O)OC(C)(C)C(Cl)(Cl)Cl)C(=O)NCCc1ccccn1 (stereo unspecified)
89 to 92 | CCc1cc2c(OCC(=O)OC)cccc2n1Cc1ccccc1
73 to 75 | Cc1cccc(Sc2ccc(C(=O)O)s2)c1
140 to 141 | CCc1nc2c(Cl)nc(C)cc2n1Cc1ccccc1
126 to 128 | O=C(CCC12CCC(=O)N1C(=O)CC2)OCc1ccccc1Cl
118 to 120 | O=C(O)CCCCCCC1=C(C=Cc2ccccc2)C(=O)CC1
177 to 178 | c1ccc(C2=NN=C(c3ccccc3)NN2)cc1
212 to 214 | CC(C)COC(=O)Nc1ccc(C2=CCS(=O)CC2)c(F)c1 (stereo unspecified)
108 to 109 | O=C(O)C(Cl)Cc1ccccc1[N+](=O)[O-] (stereo unspecified)
70 to 71.5 | CC(=O)n1cc(Cl)c(-c2cccc(C(F)(F)F)c2)c1
123 to 124 | COc1ccc(C(=O)NCCc2ccccc2)cc1OC
129 to 131 | Nc1nc(-c2cc(OCc3ccccc3)no2)cs1
107 to 108 | CON=C(c1cc(C)no1)c1ccccc1COc1cc(C)ccc1C
215 to 217 | CC(C)C(=O)Nc1ccnc(-c2ccncc2)n1
230 to 231 | CNC(=O)c1sc(C(C)(C)C)cc1N
177 to 178 | O=C(NCCCn1cc(Cn2ccnc2)c2ccccc21)Nc1ccccc1
98 to 100 | CCOC(=O)C1CCn2c(cc3ccccc32)C1OC(C)=O (stereo unspecified)
73.4 to 75.5 | CC(C)(Br)C(=O)NCc1ccccc1
> 300 | Cc1cc(C(=O)Nc2ccc(C(=O)O)cc2)on1
163 to 165 | Cc1ccc(-n2cnc(OC(C)C(=O)O)n2)cc1 (stereo unspecified)
169 to 171 | O=C(c1cc(O)c(O)c([N+](=O)[O-])c1)c1ccccc1F

melting point [°C] | SMILES
143 to 144 | CC(c1ccco1)N(O)C(N)=O (stereo unspecified)
194 to 196 | CN(C(=O)CNc1nc(-c2ccccc2)ncc1[N+](=O)[O-])c1ccccc1
73 to 74 | CC(=O)OCC1OC(SCCCc2ccccc2)C(OC(C)=O)C(OC(C)=O)C1OC(C)=O (stereo unspecified)
189 to 190 | Oc1ccc(-c2n[nH]c3ccccc23)cc1
113 to 115 | CN(C)c1ccccc1CSC1=NC(=O)C(C)(C)N1
188 to 190 | Cc1cccc(NC(N)=S)n1
127 to 129 | COC(=O)c1cc2ccc(C(=O)NC(CO[Si](C)(C)C(C)(C)C)CO[Si](C)(C)C(C)(C)C)cc2[nH]1
155 to 157 | CC(C)(C)OC(=O)NC(Cc1c[nH]c2ccccc12)C(=O)OCCl (stereo unspecified)
228 to 230 | CN1C(=O)NC(c2ccccc2)c2cc3c(cc21)OCO3 (stereo unspecified)
95 | Cc1cccc(Nc2ccc(-c3ccccc3)cc2)c1
126 to 128 | NCCCOc1ccc2cc(CC(=O)O)c(=O)n(Cc3ccccc3)c2c1
62 to 64 | O=[N+]([O-])c1ccccc1N1CCc2ccccc21
192 to 194 | Cc1oc2c(NC(=O)c3c(Cl)ccc(O)c3Cl)cccc2c1C
136 to 138 | CC(O)C(C)(C)NC(=S)NC(=O)c1ccccc1 (stereo unspecified)
220 to 221 | Cc1ccccc1-c1c(NC(=O)Nc2ccc(F)cc2F)c(=O)oc2c(F)cc(F)cc12
70 to 75 | CCCCN(CCCC)C(=O)NCCc1ccc(-c2csc(NC(=O)OC(C)(C)C)n2)cc1
173 to 175 | Cc1cnc(Oc2cccc(C(F)(F)F)c2)c(C(=O)O)c1
93.2 to 94.6 | CCOC(=O)c1cc(C)n(-c2cccc(Cl)c2)c1-c1ccccc1
123 to 124 | CCCc1cc(C(=O)O)ccc1OCCCCCCc1cccc(O)c1O
275 to 276 | O=C(Nc1cccc(C(=O)O)c1)NC1C(=O)N(CC(=O)N2CCCC2)c2ccccc2N(C2CCCCC2)C1=O (stereo unspecified)
194 | CNC(=O)c1cccc(NC(=O)COc2cccc3ccccc23)c1

Reference: a melting point compilation (Tetko et al.; mined from patent text by program, amines drawn as free bases though some values may be those of a salt)
